From US10689354B2, “Aminoazole derivative” (Teijin Pharma Limited, priority 2015, dated 2020) come the findings set out here.

Assay [1] concerns the target T1, androgen receptor (AR-LBD) (Rattus norvegicus, UniProt P15207).
T1 construct: 5 μL of 2×AR-LBD/Fluoromone AL Red Complex contained in the kit; purchased Invitrogen
T1 sequence (P15207 651-882 limits assumed): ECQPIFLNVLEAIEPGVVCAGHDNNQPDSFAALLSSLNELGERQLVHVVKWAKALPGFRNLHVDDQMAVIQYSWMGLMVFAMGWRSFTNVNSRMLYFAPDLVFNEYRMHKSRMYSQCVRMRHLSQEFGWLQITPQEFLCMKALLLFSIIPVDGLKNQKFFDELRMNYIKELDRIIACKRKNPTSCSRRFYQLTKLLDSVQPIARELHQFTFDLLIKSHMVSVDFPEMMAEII
As to the kind of experiment: Evaluation of androgen receptor affinity (PolarScreen Androgen Receptor Competitor Assay Kit, Red; fluorescence polarization). Particulars: 22° C. for 5 hours, relative to binding rate of 1 μM DHT, read-out: AR affinity (pEC50) (converted). The method in brief:
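pEC50 values reflect tracer displacement from AR-LBD (Fluoromone AL Red complex) measured by fluorescence polarization after 5 h at 22° C, normalized to 1 μM DHT and fitted with a 4-parameter model.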
Background: Fluorescence polarisation rises when a labelled molecule tumbles more slowly, as on binding a larger partner.

In the next assay the target is T2, human androgen receptor (Homo sapiens, UniProt P10275).
T2 construct: expressed in transfected cells; host or cells: HEK293
T2 sequence (P10275 1-920): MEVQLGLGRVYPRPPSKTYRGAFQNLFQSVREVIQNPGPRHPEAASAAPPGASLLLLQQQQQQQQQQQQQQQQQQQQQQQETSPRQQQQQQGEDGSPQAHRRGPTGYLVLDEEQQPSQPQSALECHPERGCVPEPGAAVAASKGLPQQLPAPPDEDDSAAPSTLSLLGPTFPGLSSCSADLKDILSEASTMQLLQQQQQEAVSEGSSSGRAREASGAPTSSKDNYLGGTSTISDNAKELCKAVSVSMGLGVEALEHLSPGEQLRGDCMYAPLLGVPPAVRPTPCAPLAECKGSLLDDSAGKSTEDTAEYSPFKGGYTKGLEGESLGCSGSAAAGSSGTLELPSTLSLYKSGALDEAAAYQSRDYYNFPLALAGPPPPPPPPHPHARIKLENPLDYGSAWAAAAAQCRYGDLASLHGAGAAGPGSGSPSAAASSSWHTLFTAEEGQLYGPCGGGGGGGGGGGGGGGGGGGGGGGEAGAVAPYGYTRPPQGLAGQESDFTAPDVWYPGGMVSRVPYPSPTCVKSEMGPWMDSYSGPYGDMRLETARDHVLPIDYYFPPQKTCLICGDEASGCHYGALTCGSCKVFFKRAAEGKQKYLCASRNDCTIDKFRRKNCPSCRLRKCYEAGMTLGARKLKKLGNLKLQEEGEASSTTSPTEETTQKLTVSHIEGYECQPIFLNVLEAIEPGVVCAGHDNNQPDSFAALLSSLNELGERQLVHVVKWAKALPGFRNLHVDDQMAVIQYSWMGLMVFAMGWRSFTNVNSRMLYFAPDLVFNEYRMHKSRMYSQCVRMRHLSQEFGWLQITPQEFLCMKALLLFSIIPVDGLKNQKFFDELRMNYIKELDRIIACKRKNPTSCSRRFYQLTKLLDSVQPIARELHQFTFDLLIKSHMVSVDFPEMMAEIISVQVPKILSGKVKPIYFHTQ
As to the kind of experiment: Reporter assay of an androgen receptor responsive sequence (luciferase, transiently transfected HEK293 cells). The format is cell-based. The following applies: 24 hours incubation, relative to activity of 100 nM DHT, read-out: AR transcriptive activity (pEC50) (converted). A digest of the protocol:
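HEK293 cells transiently transfected for 3 h with ARE-firefly luciferase, full-length human AR and TK-Renilla plasmids, then exposed to compound for 24 h at 37 °C in 5% charcoal-treated FBS/DMEM. Dual-Glo luminescence read; pEC50 from 4-parameter fit relative to 100 nM DHT.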
(In general: A reporter such as luciferase makes a cellular process visible.)

SMILES strings stand for the structures. A value given as a limit tells only on which side of the number the result lay.

Take `Cc1sc(N(Cc2ccc(Cl)cc2)Cc2csc3cc(C#N)ccc23)nc1C(=O)NS(C)(=O)=O` [Example 305, 2-[(4-chlorophenyl)methyl-[(6-cyanobenzothiophen-3-yl)methyl]amino]-5-methyl-N-methylsulfonyl-thiazole-4-carboxamide]: the EC50 is above 2000 nM in assay [1] and above 10000 nM at human androgen receptor.
Regarding `Cc1sc(N(Cc2ccccc2)c2ccc(C#N)cc2)nc1C(=O)NS(=O)(=O)C(F)(F)F` [Compound 364, 2-(N-benzyl-4-cyano-anilino)-5-methyl-N-(trifluoromethylsulfonyl)thiazole-4-carboxamide], the EC50 in assay [1] is 31.6 nM; at human androgen receptor it was above 10000 nM.
Take `Cc1sc(N(Cc2ccc(F)cc2Cl)c2ccc(C#N)cc2)nc1C(=O)NS(C)(=O)=O` [Compound 106, 2-[N-[(2-chloro-4-fluoro-phenyl)methyl]-4-cyano-anilino]-5-methyl-N-methylsulfonyl-thiazole-4-carboxamide]: the EC50 in assay [1] is 79.4 nM; on human androgen receptor it was 316 nM.
`Cc1sc(N(Cc2cccc(SC(F)(F)F)c2)c2ccc(C#N)cc2)nc1C(=O)NS(C)(=O)=O` [Compound 57, 2-[4-cyano-N-[[3-(trifluoromethylsulfanyl)phenyl]methyl]anilino]-5-methyl-N-methylsulfonyl-thiazole-4-carboxamide]: the EC50 in assay [1] was 31.6 nM; on human androgen receptor, 316 nM.
For the compound `Cc1sc(N(Cc2cc(F)cc(F)c2F)c2ccc(C#N)cc2)nc1C(=O)NS(C)(=O)=O` [Compound 109, 2-[4-cyano-N-[(2,3,5-trifluorophenyl)methyl]anilino]-5-methyl-N-methylsulfonyl-thiazole-4-carboxamide], the EC50 in assay [1] was 100 nM; on human androgen receptor, 200 nM.
The like results for `Cc1sc(N(CCC(C)(C)C)c2ccc(C#N)cc2)nc1C(=O)NS(C)(=O)=O` [Compound 90, 2-[4-cyano-N-(3,3-dimethylbutyl)anilino]-5-methyl-N-methylsulfonyl-thiazole-4-carboxamide] were, in that order, 398 nM and above 10000 nM.
`CS(=O)(=O)NC(=O)c1nc(N(Cc2ccc(Cl)cn2)c2ccc(C#N)cc2)sc1Br` [Compound 641, 5-bromo-2-[N-[(5-chloro-2-pyridyl)methyl]-4-cyano-anilino]-N-methylsulfonyl-thiazole-4-carboxamide]: the figures for the EC50 (in assay [1]; at human androgen receptor) were 126 nM and 79.4 nM, respectively.
`CCCCCCN(c1ccc(C#N)cc1)c1nc(C(=O)NS(C)(=O)=O)c(C)s1` [Compound 75, 2-(4-cyano-N-hexyl-anilino)-5-methyl-N-methylsulfonyl-thiazole-4-carboxamide]: the EC50 was 31.6 nM in assay [1] and 398 nM at human androgen receptor.
As to `Cc1sc(N(CCc2ccc(Cl)cc2Cl)Cc2ccccc2)nc1C(=O)NS(C)(=O)=O` [Example 315, 2-[benzyl-[2-(2,4-dichlorophenyl)ethyl]amino]-5-methyl-N-methylsulfonyl-thiazole-4-carboxamide], the EC50 in assay [1] was 79.4 nM; at human androgen receptor, 158 nM.
As to `Cc1sc(N(Cc2cc(C(F)(F)F)ccc2Cl)c2ccc(C#N)cc2)nc1C(=O)NS(C)(=O)=O` [Compound 417, 2-[N-[[2-chloro-5-(trifluoromethyl)phenyl]methyl]-4-cyano-anilino]-5-methyl-N-methylsulfonyl-thiazole-4-carboxamide], the EC50 is 316 nM in assay [1] and above 10000 nM on human androgen receptor.
